Series [1] in a line: DRUGMATRIX: Calcium Channel Type L, Dihydropyridine radioligand binding (ligand: [3H] Nitrendipine). The settings on record: Not Active = under 50% inhibition at 10 µM. The series is classed as cell membranes, Rattus norvegicus, Wistar, Cerebral cortex, Membrane.
The next series has as its target T1, Thromboxane-A synthase (Homo sapiens, UniProt P24557).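 Also: enzyme inhibition assay with PGH2 supplied as substrate; in other assays of this panel Not Active means under 50% inhibition at 10 µM.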
T1 sequence (P24557 whole entry): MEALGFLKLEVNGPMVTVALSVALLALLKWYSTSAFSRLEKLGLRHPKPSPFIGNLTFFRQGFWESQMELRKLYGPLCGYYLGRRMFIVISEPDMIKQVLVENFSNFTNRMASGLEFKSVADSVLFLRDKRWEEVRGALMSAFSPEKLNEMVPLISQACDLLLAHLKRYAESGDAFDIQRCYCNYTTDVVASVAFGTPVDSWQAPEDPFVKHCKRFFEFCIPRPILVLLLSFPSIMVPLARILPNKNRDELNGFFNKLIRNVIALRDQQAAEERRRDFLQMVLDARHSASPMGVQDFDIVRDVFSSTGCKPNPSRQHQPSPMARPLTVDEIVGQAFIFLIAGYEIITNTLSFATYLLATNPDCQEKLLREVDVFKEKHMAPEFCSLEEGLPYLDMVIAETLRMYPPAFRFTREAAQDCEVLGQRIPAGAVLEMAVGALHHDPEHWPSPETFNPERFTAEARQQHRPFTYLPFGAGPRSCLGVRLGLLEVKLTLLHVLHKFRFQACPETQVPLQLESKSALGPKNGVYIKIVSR
The experiment in a line: biochemical. It counts as tissue-based, Platelet.

In series [2] the target is T2, C-X-C chemokine receptor type 1 (Homo sapiens, UniProt P25024). Also: in other assays of this panel Not Active means under 50% inhibition at 10 µM.
T2 sequence (P25024 whole entry): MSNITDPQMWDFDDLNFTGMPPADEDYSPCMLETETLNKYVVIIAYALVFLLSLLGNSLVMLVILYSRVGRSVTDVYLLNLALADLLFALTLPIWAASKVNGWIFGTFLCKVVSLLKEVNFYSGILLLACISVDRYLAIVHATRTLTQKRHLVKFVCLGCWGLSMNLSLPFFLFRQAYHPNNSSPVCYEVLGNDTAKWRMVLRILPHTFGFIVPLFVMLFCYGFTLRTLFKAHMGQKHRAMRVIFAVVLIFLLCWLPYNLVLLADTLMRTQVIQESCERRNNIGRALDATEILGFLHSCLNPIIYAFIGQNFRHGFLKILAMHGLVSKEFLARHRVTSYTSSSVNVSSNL

A further series concerns the target Melanocortin receptor 5 (Homo sapiens, UniProt P33032). It counts as cell membranes, HEK293, Membrane. The settings on record: hek293. Also: in other assays of this panel Not Active means under 50% inhibition at 10 µM.
Series [3] in a line: DRUGMATRIX: Phorbol Ester radioligand binding (ligand: [3H] PDBu). The series is classed as cell membranes, Mus musculus, ICR, Brain, Membrane. The settings on record: Not Active = under 50% inhibition at 10 µM.
The next series has as its target T3, Caspase-1 (Homo sapiens, UniProt P29466).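 Also: Caspase-1 enzyme inhibition assay with a peptide substrate; in other assays of this panel Not Active means under 50% inhibition at 10 µM.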
T3 sequence (P29466 whole entry): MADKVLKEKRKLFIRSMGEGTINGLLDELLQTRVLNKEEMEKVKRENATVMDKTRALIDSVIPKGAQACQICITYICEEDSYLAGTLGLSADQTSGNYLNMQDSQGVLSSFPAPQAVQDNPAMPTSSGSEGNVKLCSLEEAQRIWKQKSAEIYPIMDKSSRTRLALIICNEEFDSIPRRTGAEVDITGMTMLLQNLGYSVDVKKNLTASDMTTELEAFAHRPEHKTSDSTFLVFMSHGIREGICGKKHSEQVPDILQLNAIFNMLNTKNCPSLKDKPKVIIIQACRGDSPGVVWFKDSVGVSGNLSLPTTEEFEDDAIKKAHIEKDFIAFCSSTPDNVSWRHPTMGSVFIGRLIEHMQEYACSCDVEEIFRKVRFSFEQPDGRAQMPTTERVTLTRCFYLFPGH
More on the design: species or system Escherichia coli.

Series [4] has as its target Receptor tyrosine-protein kinase erbB-2 (Homo sapiens, UniProt P04626). The experiment in a line: biochemical. It counts as cell-based, Insect cells. The settings on record: insect cells.
In another series the target is Cytochrome P450 2E1 (Homo sapiens, UniProt P05181). The settings on record: bti-tn-5b1-4. Also: in other assays of this panel Not Active means under 50% inhibition at 10 µM.

Each structure is given as a SMILES string.

Chain of Cytochrome P450 2E1 (P05181 whole entry): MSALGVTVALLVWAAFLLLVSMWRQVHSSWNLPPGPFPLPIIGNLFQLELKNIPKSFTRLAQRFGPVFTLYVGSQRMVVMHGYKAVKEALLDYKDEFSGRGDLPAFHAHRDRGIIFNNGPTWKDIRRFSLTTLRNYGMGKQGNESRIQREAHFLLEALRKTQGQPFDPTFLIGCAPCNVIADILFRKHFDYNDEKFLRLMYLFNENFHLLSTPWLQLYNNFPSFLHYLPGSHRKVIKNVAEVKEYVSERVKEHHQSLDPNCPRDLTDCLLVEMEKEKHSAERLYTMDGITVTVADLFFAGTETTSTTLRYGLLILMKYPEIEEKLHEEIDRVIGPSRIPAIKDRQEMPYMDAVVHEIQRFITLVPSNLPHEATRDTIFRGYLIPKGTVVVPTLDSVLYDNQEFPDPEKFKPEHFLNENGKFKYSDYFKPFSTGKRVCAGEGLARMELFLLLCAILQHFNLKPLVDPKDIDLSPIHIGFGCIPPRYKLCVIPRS
Chain of Melanocortin receptor 5 (P33032 whole entry): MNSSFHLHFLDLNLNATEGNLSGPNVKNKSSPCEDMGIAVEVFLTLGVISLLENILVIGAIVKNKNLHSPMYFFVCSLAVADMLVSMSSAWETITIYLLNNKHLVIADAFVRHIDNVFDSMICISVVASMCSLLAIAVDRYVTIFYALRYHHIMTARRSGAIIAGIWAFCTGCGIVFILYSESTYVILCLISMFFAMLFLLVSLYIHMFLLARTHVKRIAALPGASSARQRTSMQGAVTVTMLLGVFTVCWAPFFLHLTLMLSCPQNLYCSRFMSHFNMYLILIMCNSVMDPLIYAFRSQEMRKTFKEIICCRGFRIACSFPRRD
Chain of Receptor tyrosine-protein kinase erbB-2 (P04626 whole entry): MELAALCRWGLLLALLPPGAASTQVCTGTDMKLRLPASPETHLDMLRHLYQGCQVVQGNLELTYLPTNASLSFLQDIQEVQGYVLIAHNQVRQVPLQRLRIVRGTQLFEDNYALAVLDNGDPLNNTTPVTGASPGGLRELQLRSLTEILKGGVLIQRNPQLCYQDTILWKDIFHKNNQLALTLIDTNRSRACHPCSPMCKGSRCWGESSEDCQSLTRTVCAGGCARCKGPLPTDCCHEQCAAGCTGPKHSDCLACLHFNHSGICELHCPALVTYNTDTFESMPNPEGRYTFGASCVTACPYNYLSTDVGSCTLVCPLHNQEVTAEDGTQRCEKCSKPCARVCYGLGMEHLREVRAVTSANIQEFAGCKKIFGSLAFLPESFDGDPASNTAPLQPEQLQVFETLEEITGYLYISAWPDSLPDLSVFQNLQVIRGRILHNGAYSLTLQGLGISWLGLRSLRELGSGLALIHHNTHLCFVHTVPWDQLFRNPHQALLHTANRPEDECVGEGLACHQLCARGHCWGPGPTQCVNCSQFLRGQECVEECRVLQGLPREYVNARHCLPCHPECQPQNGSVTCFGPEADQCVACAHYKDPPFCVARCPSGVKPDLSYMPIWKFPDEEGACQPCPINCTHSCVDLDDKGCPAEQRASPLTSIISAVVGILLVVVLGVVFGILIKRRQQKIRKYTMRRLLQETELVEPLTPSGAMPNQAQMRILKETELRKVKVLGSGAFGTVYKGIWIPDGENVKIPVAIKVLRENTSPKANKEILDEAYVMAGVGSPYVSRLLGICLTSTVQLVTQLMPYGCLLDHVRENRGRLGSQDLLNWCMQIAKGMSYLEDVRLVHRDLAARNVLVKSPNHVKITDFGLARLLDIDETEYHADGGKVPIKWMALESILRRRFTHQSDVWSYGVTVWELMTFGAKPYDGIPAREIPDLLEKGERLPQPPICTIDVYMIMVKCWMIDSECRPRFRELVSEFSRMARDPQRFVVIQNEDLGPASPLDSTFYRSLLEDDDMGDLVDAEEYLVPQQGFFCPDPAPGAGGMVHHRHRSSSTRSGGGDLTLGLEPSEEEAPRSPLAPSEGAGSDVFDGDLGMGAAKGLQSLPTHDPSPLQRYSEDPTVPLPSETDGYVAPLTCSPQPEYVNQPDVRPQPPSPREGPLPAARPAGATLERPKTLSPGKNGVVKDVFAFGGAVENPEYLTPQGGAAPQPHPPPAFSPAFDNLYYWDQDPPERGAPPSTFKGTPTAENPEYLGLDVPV

In general, IC50 refers to the concentration that gives 50% inhibition. `O=P(O)(O)C(O)(Cc1cccnc1)P(=O)(O)O` [RISEDRONIC ACID]: the IC50 result (in series [1]; at Thromboxane-A synthase (platelet); in series [2]; against Melanocortin receptor 5; in series [3]; on Caspase-1) was “Not Active” in each case. The IC50 entry (in series [4]; against Cytochrome P450 2E1) was “Not Active” in each case. Further, the Ki entry (in series [1]; in series [3]; at Cytochrome P450 2E1) was “Not Active” each time.

Take `CN(CCOc1ccc(CC2SC(=O)NC2=O)cc1)c1ccccn1` (centres undefined) [ROSIGLITAZONE]: the IC50 entry in series [1] is “Not Active”; at Thromboxane-A synthase (read-out: IC50), 3.56 µM; in series [2] it was “Not Active”; at Melanocortin receptor 5, “Not Active”; in series [3], “Not Active”; at Caspase-1, “Not Active”. Moreover, the IC50 entry (in series [4]; on Cytochrome P450 2E1) was “Not Active” in each case. For the same compound, the Ki entry (in series [1]; in series [3]; on Cytochrome P450 2E1) was “Not Active” throughout.

Regarding `C=C(C)[C@H]1Cc2c(ccc3c2O[C@@H]2COc4cc(OC)c(OC)cc4[C@@H]2C3=O)O1` [ROTENONE], the IC50 result (in series [1]; on Thromboxane-A synthase (platelet); in series [2]; against Melanocortin receptor 5; in series [3]; on Caspase-1) was “Not Active” each time. For the same compound, the IC50 result (in series [4]; on Cytochrome P450 2E1) was “Not Active” each time. Also, the Ki entry (in series [1]; in series [3]; at Cytochrome P450 2E1) was “Not Active” throughout.

For `C#CCN(C)[C@H](C)Cc1ccccc1` [SELEGILINE], the IC50 result (in series [1]; at Thromboxane-A synthase (platelet); in series [2]; at Melanocortin receptor 5; in series [3]; at Caspase-1) was “Not Active” in each case. Moreover, the IC50 entry (in series [4]; against Cytochrome P450 2E1) was “Not Active” throughout. The Ki result (in series [1]; in series [3]; at Cytochrome P450 2E1) was “Not Active” each time.

For `CO[C@H]1C[C@@H]2CC[C@@H](C)[C@@](O)(O2)C(=O)C(=O)N2CCCC[C@H]2C(=O)O[C@H]([C@H](C)C[C@@H]2CC[C@@H](O)[C@H](OC)C2)CC(=O)[C@H](C)/C=C(\C)[C@@H](O)[C@@H](OC)C(=O)[C@H](C)C[C@H](C)/C=C/C=C/C=C/1C` [SIROLIMUS], the IC50 entry (in series [1]; against Thromboxane-A synthase (platelet); in series [2]; against Melanocortin receptor 5; in series [3]; against Caspase-1) was “Not Active” throughout. In addition, the IC50 entry (in series [4]; against Cytochrome P450 2E1) was “Not Active” each time. Besides, the Ki result (in series [1]; in series [3]; on Cytochrome P450 2E1) was “Not Active” each time.

On to `CN[C@@H]1[C@H](O)[C@H](NC)[C@H]2O[C@@]3(O)C(=O)C[C@@H](C)O[C@H]3O[C@@H]2[C@H]1O` [SPECTINOMYCIN], for which the IC50 result (in series [1]; against Thromboxane-A synthase (platelet); in series [2]; at Melanocortin receptor 5; in series [3]; against Caspase-1) was “Not Active” throughout. Also, the IC50 entry (in series [4]; at Cytochrome P450 2E1) was “Not Active” each time. The Ki entry (in series [1]; in series [3]; on Cytochrome P450 2E1) was “Not Active” each time.

On to `Nc1ccc(S(=O)(=O)Nc2ncccn2)cc1` [SULFADIAZINE], for which the IC50 entry (in series [1]; at Thromboxane-A synthase (platelet); in series [2]; against Melanocortin receptor 5; in series [3]; on Caspase-1) was “Not Active” each time. Besides, the IC50 entry (in series [4]; on Cytochrome P450 2E1) was “Not Active” each time. Further, the Ki entry (in series [1]; in series [3]; at Cytochrome P450 2E1) was “Not Active” each time.

`COc1ncnc(NS(=O)(=O)c2ccc(N)cc2)c1OC` [SULFADOXINE]: the IC50 entry (in series [1]; on Thromboxane-A synthase (platelet); in series [2]; on Melanocortin receptor 5; in series [3]; against Caspase-1) was “Not Active” throughout. The IC50 entry (in series [4]; against Cytochrome P450 2E1) was “Not Active” in each case. Further, the Ki entry (in series [1]; in series [3]; on Cytochrome P450 2E1) was “Not Active” throughout.

Consider `Nc1ccc(S(=O)(=O)Nc2nccs2)cc1` [SULFATHIAZOLE], for which the IC50 result (in series [1]; on Thromboxane-A synthase (platelet); in series [2]; against Melanocortin receptor 5; in series [3]; against Caspase-1) was “Not Active” throughout. The IC50 entry (in series [4]; against Cytochrome P450 2E1) was “Not Active” in each case. The Ki entry (in series [1]; in series [3]; on Cytochrome P450 2E1) was “Not Active” in each case.

`C[C@]12CC[C@H]3[C@@H](CCC4=CC(=O)CC[C@@]43C)[C@@H]1CC[C@@H]2O` [TESTOSTERONE]: the IC50 result (in series [1]; against Thromboxane-A synthase (platelet); in series [2]; at Melanocortin receptor 5; in series [3]; at Caspase-1) was “Not Active” each time. Further, the IC50 result (in series [4]; against Cytochrome P450 2E1) was “Not Active” each time. For the same compound, the Ki result (in series [1]; in series [3]; on Cytochrome P450 2E1) was “Not Active” in each case.

Regarding `CC(C)(C)NC[C@H](O)COc1nsnc1N1CCOCC1` [TIMOLOL], the IC50 result (in series [1]; against Thromboxane-A synthase (platelet); in series [2]; against Melanocortin receptor 5; in series [3]; against Caspase-1) was “Not Active” each time. Besides, the IC50 entry (in series [4]; at Cytochrome P450 2E1) was “Not Active” throughout. In addition, the Ki entry (in series [1]; in series [3]; on Cytochrome P450 2E1) was “Not Active” each time.

`C[C@@H]1C[C@H]2[C@@H]3CCC4=CC(=O)C=C[C@]4(C)C3=CC[C@]2(C)[C@H]1C(=O)CN1CCN(c2cc(N3CCCC3)nc(N3CCCC3)n2)CC1` [TIRILAZAD]: the IC50 entry (in series [1]; at Thromboxane-A synthase (platelet); in series [2]; against Melanocortin receptor 5; in series [3]; against Caspase-1) was “Not Active” throughout. The IC50 result (in series [4]; against Cytochrome P450 2E1) was “Not Active” throughout. Besides, the Ki result (in series [1]; in series [3]; at Cytochrome P450 2E1) was “Not Active” throughout.

Regarding `NC[C@H]1O[C@H](O[C@H]2[C@H](O)[C@@H](O[C@H]3O[C@H](CO)[C@@H](O)[C@H](N)[C@H]3O)[C@H](N)C[C@@H]2N)[C@H](N)C[C@@H]1O` [TOBRAMYCIN], the IC50 result (in series [1]; on Thromboxane-A synthase (platelet); in series [2]; on Melanocortin receptor 5; in series [3]; against Caspase-1) was “Not Active” each time. For the same compound, the IC50 result (in series [4]; at Cytochrome P450 2E1) was “Not Active” throughout. Further, the Ki entry (in series [1]; in series [3]; at Cytochrome P450 2E1) was “Not Active” throughout.

Turning to `O=C(O)C(Cl)(Cl)Cl` [TRICHLOROACETIC ACID], the IC50 entry (in series [1]; against Thromboxane-A synthase (platelet); in series [2]; at Melanocortin receptor 5; in series [3]; on Caspase-1) was “Not Active” in each case. Moreover, the IC50 entry (in series [4]; against Cytochrome P450 2E1) was “Not Active” throughout. In addition, the Ki entry (in series [1]; in series [3]; at Cytochrome P450 2E1) was “Not Active” in each case.

Values taken from ChEMBL document CHEMBL1909046, “DrugMatrix in vitro pharmacology data”.
